Measurements reported in patent US11111251B2, “Positive allosteric modulators of the muscarinic acetylcholine receptor M1” (Vanderbilt University, priority 2016, dated 2021).
pEC50: −log10 of the molar value.

Molecular target: T1, human mAChR M1 (Homo sapiens, UniProt P11229)
T1 sequence (P11229 1-460): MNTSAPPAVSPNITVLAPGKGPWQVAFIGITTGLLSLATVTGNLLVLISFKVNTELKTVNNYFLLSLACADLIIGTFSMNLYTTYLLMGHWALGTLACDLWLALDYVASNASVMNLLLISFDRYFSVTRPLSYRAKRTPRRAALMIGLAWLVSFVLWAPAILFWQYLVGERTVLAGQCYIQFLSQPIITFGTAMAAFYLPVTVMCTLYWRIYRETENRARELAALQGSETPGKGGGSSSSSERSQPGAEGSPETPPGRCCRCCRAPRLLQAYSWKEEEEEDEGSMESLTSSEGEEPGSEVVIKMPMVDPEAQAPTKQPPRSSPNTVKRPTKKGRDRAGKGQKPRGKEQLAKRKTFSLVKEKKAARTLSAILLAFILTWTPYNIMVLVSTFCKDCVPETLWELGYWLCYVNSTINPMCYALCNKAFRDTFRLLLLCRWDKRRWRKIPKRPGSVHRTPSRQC
Experiment: mAChR M1 cell-based functional assay: calcium mobilization, positive allosteric modulator mode (increase in EC20 acetylcholine response)
Settings: Table 2, human M1; for pEC50: read-out: Human M1 EC50; for Emax: read-out: Human M1 Emax (%)
In short: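 PAM potency reflects the concentration-dependent increase in calcium response to an EC20 acetylcholine challenge, given 144 s into a 300 s read after compound addition at 4 s (EC80 follows at 230 s). Cells were hM1-expressing CHO-K1, loaded 50 min with Fluo-4 AM. Curves used 11 points at 1:3 dilutions and four-parameter logistic fitting.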

| Compound | pEC50 | Emax [%] | Human M1 Emax (%) |
| --- | --- | --- | --- |
| Cn1ncc2nc(C(=O)NCC3CCO3)cc(Cc3ccc(-c4cscn4)cc3)c21 (stereo not shown) [Compound 494, 1-methyl-N-(oxetan-2-ylmethyl)-7-[(4-thiazol-4-ylphenyl)methyl]pyrazolo-[4,3-b]pyridine-5-carboxamide] | 5.30 | 52.2 | – |
| Cn1ncc2nc(C(=O)NC[C@H]3CCCO3)cc(Cc3ccc(-c4cscn4)cc3)c21 [Compound 495, 1-methyl-N-[[(2R)-tetrahydrofuran-2-yl]methyl]-7-[(4-thiazol-4-ylphenyl)methyl]-pyrazolo[4,3-b]pyridine-5-carboxamide] | 5.41 | 65.1 | – |
| Cn1ncc2nc(C(=O)N[C@@H]3CC[C@H]3O)cc(Cc3ccc(-n4cccn4)cc3)c21 [Compound 496, N-[(1R,2R)-2-hydroxycyclobutyl]-1-methyl-7-[(4-pyrazol-1-ylphenyl)methyl]pyrazolo-[4,3-b]pyridine-5-carboxamide] | < 5.00 | 65.7 | – |
| Cn1ncc2nc(C(=O)NC3CC4(COC4)C3)cc(Cc3ccc(-n4cccn4)cc3)c21 [Compound 500, 1-methyl-N-(2-oxaspiro[3.3]heptan-6-yl)-7-[(4-pyrazol-1-ylphenyl)methyl]pyrazolo-[4,3-b]pyridine-5-carboxamide] | < 5.00 | 63.1 | – |
| Cn1ncc2nc(C(=O)NCC3CCO3)cc(Cc3ccc(-n4cccn4)cc3)c21 (stereo not shown) [Compound 501, 1-methyl-N-(oxetan-2-ylmethyl)-7-[(4-pyrazol-1-ylphenyl)methyl]pyrazolo[4,3-b]-pyridine-5-carboxamide] | < 5.00 | 57.4 | – |
| Cn1ncc2nc(C(=O)NC[C@H]3CCCO3)cc(Cc3ccc(-n4cccn4)cc3)c21 [Compound 502, 1-methyl-7-[(4-pyrazol-1-ylphenyl)methyl]-N-[[(2R)-tetrahydrofuran-2-yl]methyl]-pyrazolo[4,3-b]pyridine-5-carboxamide] | 5.38 | 67.2 | – |
| Cn1ccc(-c2ccc(Cc3cc(C(=O)NC4CCOCC4)nc4ccn(C)c34)cn2)n1 [Compound 503, 1-methyl-7-[[6-(1-methylpyrazol-3-yl)-3-pyridyl]methyl]-N-tetrahydropyran-4-yl-pyrrolop,2-blpyridine-5-carboxamide;] | 5.81 | 66.6 | – |
| Cn1ccc(-c2ccc(Cc3cc(C(=O)NC4CCOC(C)(C)C4)nc4ccn(C)c34)cn2)n1 (stereo not shown) [Compound 504, N-(2,2-dimethyltetrahydropyran-4-yl)-1-methyl-7-[[6-(1-methylpyrazol-3-yl)-3-pyridyl]methyl]pyrrolo[3,2-b]pyridine-5-carboxamide;] | 5.87 | 79.5 | – |
| CC1CC(NC(=O)c2cc(Cc3ccc(-c4ccn(C)n4)nc3)c3c(ccn3C)n2)CC(C)O1 (stereo not shown) [Compound 506, N-(2,6-dimethyltetrahydropyran-4-yl)-1-methyl-7-[[6-(1-methylpyrazol-3-yl)-3-pyridyl]methyl]pyrrolo[3,2-b]pyridine-5-carboxamide;] | 5.15 | 78.2 | – |
| Cn1ccc(-c2ccc(Cc3cc(C(=O)NCC4CCOCC4)nc4ccn(C)c34)cn2)n1 [Compound 508, 1-methyl-7-[[6-(1-methylpyrazol-3-yl)-3-pyridyl]methyl]-N-(tetrahydropyran-4-ylmethyl)pyrrolo[3,2-b]pyridine-5-carboxamide;] | 5.64 | 79.9 | – |
| Cn1ccc(-c2ccc(Cc3cc(C(=O)NCC4CCOC4)nc4ccn(C)c34)cn2)n1 (stereo not shown) [Compound 509, 1-methyl-7-[[6-(1-methylpyrazol-3-yl)-3-pyridyl]methyl]-N-(tetrahydrofuran-3-ylmethyl)pyrrolo[3,2-b]pyridine-5-carboxamide;] | 5.36 | 75.4 | – |
| Cn1ccc(-c2ccc(Cc3cc(C(=O)NC4CC(F)C4)nc4ccn(C)c34)cn2)n1 (stereo not shown) [Compound 510, N-(3-fluorocyclobutyl)-1-methyl-7-[[6-(1-methylpyrazol-3-yl)-3-pyridyl]methyl]pyrrolo[3,2-b]pyridine-5-carboxamide;] | 5.37 | 76.8 | – |
| Cn1ccc(-c2ccc(Cc3cc(C(=O)NC4CC(F)(F)C4)nc4ccn(C)c34)cn2)n1 [Compound 511, N-(3,3-difluorocyclobutyl)-1-methyl-7-[[6-(1-methylpyrazol-3-yl)-3-pyridyl]methyl]pyrrolo[3,2-b]pyridine-5-carboxamide;] | 5.75 | 66.1 | – |
| N-[(1S,2S)-2-hydroxycyclohexyl]-7-(4-[(4-2-ylphenyl)methyl]thieno[3,2-b]pyridine-5-carboxamide [Compound 295] | – | – | 72.42 |

The next lines start with results.

| pEC50 | Emax [%] | Compound | Human M1 Emax (%) |
| --- | --- | --- | --- |
| 6.75 | 65.5 | Cn1ncc2nc(C(=O)N[C@H]3CCOC[C@@H]3O)cc(Cc3ccc(-c4cscn4)cc3)c21 [Compound 493, N-[(3R,4S)-3-hydroxytetrahydropyran-4-yl]-1-methyl-7-[(4-thiazol-4-ylphenyl)-methyl]pyrazolo[4,3-b]pyridine-5-carboxamide] | – |
| 5.93 | 68.1 | Cn1ncc2nc(C(=O)N[C@H]3CCC[C@@H]3O)cc(Cc3ccc(-n4cccn4)cc3)c21 [Compound 497, N-[(1S,2S)-2-hydroxycyelopentyl]-1-methyl-7-[(4-pyrazol-1-ylphenyl)methyl]pyrazolo-[4,3-b]pyridine-5-carboxamide] | – |
| 6.37 | 67.3 | Cn1ncc2nc(C(=O)N[C@H]3CCCC[C@@H]3O)cc(Cc3ccc(-n4cccn4)cc3)c21 [Compound 498, N-[(1S,2S)-2-hydroxycyclohexyl]-1-methyl-7-[(4-pyrazol-1-ylphenyl)methyl]pyrazolo-[4,3-b]pyridine-5-carboxamide] | – |
| 6.57 | 65.3 | Cn1ncc2nc(C(=O)N[C@H]3CCOC[C@@H]3O)cc(Cc3ccc(-n4cccn4)cc3)c21 [Compound 499, N-[(3R,4S)-3-hydroxytetrahydropyran-4-yl]-1-methyl-7-[(4-pyrazol-1-ylphenyl)methyl]-pyrazolo[4,3-b]pyridine-5-carboxamide] | – |
| 6.12 | 79.4 | Cn1ccc(-c2ccc(Cc3cc(C(=O)NC4CCOCC4(C)C)nc4ccn(C)c34)cn2)n1 (stereo not shown) [Compound 505, N-(3,3-dimethyltetrahydropyran-4-yl)-1-methyl-7-[[6-(1-methylpyrazol-3-yl)-3-pyridyl]methyl]pyrrolo[3,2-b]pyridine-5-carboxamide;] | – |
| 6.01 | 77.6 | Cn1ccc(-c2ccc(Cc3cc(C(=O)NC4CC5(COC5)C4)nc4ccn(C)c34)cn2)n1 [Compound 507, 1-methyl-7-[[6-(1-methylpyrazol-3-yl)-3-pyridyl]methyl]-N-(2-oxaspiro[3.3]heptan-6-yl)pyrrolo[3,2-b]pyridine-5-carboxamide;] | – |
| 7.04 | 70.8 | Cn1ccc(-c2ccc(Cc3cc(C(=O)N[C@H]4CCCC[C@@H]4O)nc4ccn(C)c34)cn2)n1 [Compound 512, N-[(1S,2S)-2-hydroxycyclohexyl]-1-methyl-7-[[6-(1-methylpyrazol-3-yl)-3-pyridyl]methyl]pyrrolo[3,2-b]pyridine-5-carboxamide; and] | – |
| 6.15 | 77.8 | Cn1ccc(-c2ccc(Cc3cc(C(=O)N[C@H]4CC[C@@H]4O)nc4ccn(C)c34)cn2)n1 [Compound 513, N-[(1S,2S)-2-hydroxycyclobutyl]-1-methyl-7-[[6-(1-methylpyrazol-3-yl)-3-pyridyl]methyl]pyrrolo[3,2-b]pyridine-5-carboxamide] | – |
